Source: patent EP1510211A1, “Pharmaceutical composition comprising N-retinyl-N-retinylidene Ethanolamine (A2E), isoforms of A2E or derivatives thereof” (Lynkeus Biotech GmbH, priority 2003, dated 2005)

Columns and labels:
ARPE-19 cells = test: Apoptosis by Cell Death ELISA Plus Kit in ARPE-19 cells; format: cell-based, human
Procedure: (§1) RPE, ARPE-19, and MDCK-F1 cells are exposed to both PG (0, 10, 50 µg/ml) and A2E (0, 15 or 20 µM) for 4 hrs. […] RPE, ARPE-19, and MDCK-F1 cells are exposed to both PG (0, 10, 50 µg/ml) and iso-A2E (0, 15 or 20 µM) under the influence of light for 4 hrs. Then they are washed 3 times with PBS and the apoptosis is determined by Cell Death ELISA Plus Kit (Roche, Mannheim, Germany)
(§2) As an example, the apoptotic effect of A2E on porcine primary retinal pigment epithelial cells (RPE), and the cell lines ARPE-19 and MDCK-F1 cells is analyzed. • Example 1 describes the apoptotic effect of A2E on RPE, ARPE-19, and MDCK-F1 cells. The cells are exposed to 0, 15 and 30 µM of A2E for 2, 4, 6 and 22 hrs. […] Then they are washed 3 times with PBS and the apoptosis is determined by Cell Death ELISA Plus Kit (Roche, Mannheim, Germany). • Example 3 describes the apoptotic effect of A2E on RPE, ARPE-19, and MDCK-F1 cells after application of iso-A2E and exposure in light (photo-isomerization). […] Then they are washed 3 times with PBS and the apoptosis is determined by Cell Death ELISA Plus Kit (Roche, Mannheim, Germany) (see figure 4).
(§3) RPE and ARPE-19 cells: Primary porcine retinal pigment epithelial cells were isolated as previously described. […] Detection of apoptosis: Apoptosis was detected by Cell Death ELISA Plus Kit (Roche, Mannheim, Germany). […]

[1] = system: porcine primary retinal pigment epithelial cells (RPE); test: Apoptosis by Cell Death ELISA Plus Kit in primary RPE cells; format: cell-based
Procedure: as §1, §2, §3

MDCK-F1 cells = test: Apoptosis by Cell Death ELISA Plus Kit in MDCK-F1 cells; format: cell-based, canine
Procedure: as §1, §2, §3

[2] = PG (0, 10, 50 µg/ml) together with A2E (0, 15 or 20 µM) for 4 hrs, Figure 3
[3] = PG (0, 10, 50 µg/ml) together with iso-A2E (0, 15 or 20 µM) under the influence of light for 4 hrs, Figure 4

L-A-Phosphatidyl-DL-Glycerol sodium [PG]
protective effect: protective effect regarding the apoptotic effect of A2E (ARPE-19 cells; [2]) | protective effect regarding the apoptotic effect of photo-isomerization of iso-A2E (ARPE-19 cells; [3]) | protective effect regarding the apoptotic effect of A2E [1, 2] | protective effect regarding the apoptotic effect of photo-isomerization of iso-A2E [1, 3] | protective effect regarding the apoptotic effect of A2E (MDCK-F1 cells; [2]) | protective effect regarding the apoptotic effect of photo-isomerization of iso-A2E (MDCK-F1 cells; [3])
